Source: publication PMC7515912, “Structural insight into the binding of human galectins to corneal keratan sulfate, its desulfated form and related saccharides” (Scientific Reports, 2020)
Read-outs that look alike come from different tables or passages of the source. One block for each compound: values may come before it.

Columns and labels:
Gal-7 = target: T1, Gal-7 (Homo sapiens, UniProt P47929); assay: 1H-15N HSQC NMR titration of 15N-labeled Gal-7; format: binding
T1 construct: made in house
T1 sequence (P47929 whole entry): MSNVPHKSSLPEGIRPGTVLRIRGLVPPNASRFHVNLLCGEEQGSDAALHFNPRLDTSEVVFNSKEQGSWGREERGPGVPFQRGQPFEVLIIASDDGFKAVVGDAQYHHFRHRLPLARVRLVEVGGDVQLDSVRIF
Protocol: (§1) Uniformly ^15N-labeled Gal-3 (or Gal-7) was dissolved at a concentration of 20 μM in 20 mM potassium phosphate buffer at pH 6.9, made up using a 95% H2O/ 5% D2O mixture. ^1H–^15N HSQC NMR experiments were used to investigate binding of KS or KSDS to Gal-3[39] and Gal-7[90]. NMR experiments were performed at 30 °C on Bruker AVANCE III 700 MHz or 850 MHz spectrometers equipped with cryogenically-cooled z-gradient triple resonance probes. Chemical shift perturbations were monitored, using the sequence-specific ^1H and ^15N resonances assignments for human Gal-3, Gal-3 CRD, and Gal-7. Chemical shifts were internally referenced to DSS (4,4-dimethyl-4-silapentane-1-sulfonic acid). Raw data were converted and processed by using NMRPipe[91] and were analyzed by using NMRview[92].
Chemical shifts, δ, were referenced to 4,4-dimethyl-4-silapentane-1-sulfonic acid, and chemical shift differences (∆δ) were calculated as [(∆^1H)^2 + (0.25∆^15N)^2 ]^1/2. Intensity changes (∆Intensity) were calculated as (1 − Inti/Into), where Into is the initial resonance intensity and Inti is the intensity upon addition of KS or KSDS or another saccharide. Using this equation, a value of 1 means that that resonance is no longer observable, and 0 means the absence of resonance broadening, with a negative value indicating increased resonance intensity. […]

[1] = target: T2, Gal-3 CRD (residues 108–250) (Homo sapiens, UniProt P17931); assay: 1H-15N HSQC NMR titration of 15N-labeled Gal-3 CRD; format: binding
T2 construct: its Gal-3 CRD (residues 108–250); made in house
T2 sequence (P17931 108-250): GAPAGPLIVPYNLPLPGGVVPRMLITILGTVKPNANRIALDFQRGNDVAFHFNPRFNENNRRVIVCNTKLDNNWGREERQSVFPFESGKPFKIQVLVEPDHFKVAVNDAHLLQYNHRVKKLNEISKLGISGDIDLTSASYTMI
Protocol: as §1
(§2) Chemical shifts, δ, were referenced to 4,4-dimethyl-4-silapentane-1-sulfonic acid, and chemical shift differences (∆δ) were calculated as [(∆^1H)^2 + (0.25∆^15N)^2 ]^1/2. Intensity changes (∆Intensity) were calculated as (1 − Inti/Into), where Into is the initial resonance intensity and Inti is the intensity upon addition of KS or KSDS or another saccharide. Using this equation, a value of 1 means that that resonance is no longer observable, and 0 means the absence of resonance broadening, with a negative value indicating increased resonance intensity. In chemical shift or resonance broadening maps, the most perturbed resonances are defined as > 2SD above the average or > 1SD above the average. The 50% bound mark was taken from titration curves at 50% bound.

[2] = target: T3, Gal-3 FL (full-length human Gal-3, residues 1–250) (Homo sapiens, UniProt P17931); assay: 1H-15N HSQC NMR titration of 15N-labeled full-length Gal-3; format: binding
T3 construct: Full-length human Gal-3 (residues 1–250); made in house
T3 sequence (P17931 whole entry, the tested form may be a part): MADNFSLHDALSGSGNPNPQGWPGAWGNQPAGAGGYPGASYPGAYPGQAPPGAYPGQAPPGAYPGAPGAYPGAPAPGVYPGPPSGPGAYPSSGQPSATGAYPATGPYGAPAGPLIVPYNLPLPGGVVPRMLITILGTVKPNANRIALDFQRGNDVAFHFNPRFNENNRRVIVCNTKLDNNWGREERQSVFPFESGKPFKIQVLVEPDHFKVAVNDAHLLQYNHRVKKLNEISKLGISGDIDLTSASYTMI
Protocol: as §1, §2

[3] = target: Gal-3 (full-length and CRD) (Homo sapiens, UniProt P17931); assay: PFG NMR diffusion of KS as a function of Gal-3/KS molar ratio; format: binding
Sequence of Gal-3 (full-length and CRD) (P17931 108-250 limits assumed): as the sequence (P17931 108-250) above
Protocol: (§3) For pulsed field gradient (PFG) NMR self-diffusion measurements, a solution was made up with KS (4 μM) in 20 mM potassium phosphate buffer with ^2H2O at pD 6.7 adjusted by addition of NaO^2H or ^2HCl. To this solution, ^15N/^13C-labeled Gal-3 (full-length and CRD) dissolved in the same buffer was added at increasing concentrations as molar ratios of [Gal-3]/[KS]. PFG NMR data were acquired at 30 ◦C on a Bruker AVANCE 700 spectrometer, essentially as previously described. For unrestricted diffusion of molecules in isotropic solutions, the PFG NMR signal amplitude, A, normalized to the signal in the absence of gradient pulses, is related to the diffusion coefficient D by Eq. (1):1 A=exp[-γ^2g^2Δ^2D(Δ-[…])]
(§4) where γ is the gyromagnetic ratio, g is the magnitude of the magnetic field gradient pulse, ∆ is the time between gradient pulses. Here, we set g = 1–75 G/cm, ∆ = 34.2 ms, with a longitudinal eddy-current delay of 100 ms. Each D value was determined from a series of 14 1D PFG NMR spectra (256 scans each) using different g values. To derive D values, the gradient-induced change in amplitude of KS resonances at 3.64 and 3.7 ppm was used. In this spectral region, KS resonance intensity was considerably greater than that from Gal-3. In order to decrease Gal-3 resonance intensity further, ^13CH and ^15NH resonances from labeled Gal-3 were not decoupled.

[4] = PFG NMR self-diffusion of KS alone; format: physicochemical; settings: KS 4 μM in the absence of Gal-3; 20 mM potassium phosphate in 2H2O, pD 6.7, 30 °C
Protocol: as §3, §4

Compound: CC(=O)N[C@H]1[C@H](O[C@H]2[C@@H](O)[C@@H](CO)O[C@@H](O[C@H]3[C@H](O)[C@@H](O)C(O)O[C@@H]3CO)[C@@H]2O)O[C@H](CO)[C@@H](O)[C@@H]1O[C@@H]1O[C@H](CO)[C@H](O)[C@H](O)[C@H]1O (some centres unmarked) [LNT, lacto-N-tetraose, reference compound]
Kd (Gal-7; fast exchange, from average ∆δ vs ligand concentration, Gal-7, pH 6.9, 30 °C, read-out: KD): ~500 µM

Compound: CC(=O)N[C@H]1C(O)O[C@H](CO)[C@@H](O[C@@H]2O[C@H](CO)[C@H](O)[C@H](O)[C@H]2O)[C@@H]1O (some centres unmarked) [LacNAc, N-acetyllactosamine, reference compound]
Kd ([1]; fast exchange, from chemical shifts vs ligand concentration, Gal-3 CRD 20 μM, pH 6.9, 30 °C, read-out: KD): 380 µM | Kd ([2]; fast exchange, from chemical shifts vs ligand concentration, Gal-3 FL 20 μM, pH 6.9, 30 °C, read-out: KD): 190 µM

Kd ([1]; 7 μM × 22 sites, assumes the same stoichiometry as KSDS, Gal-3 CRD, read-out: site-average microscopic KD): 154 µM | Kd ([1]; apparent affinity/avidity from average ∆δ vs ligand concentration, 20 μM Gal-3 CRD, 20 mM KPhos, pH 6.9, 30 °C, read-out: 50% change in chemical shift / 50% lectin bound (ligand concentration)): ~7 µM | Kd (Gal-7; binding avidity estimated from average ∆δ vs glycosaminoglycan concentration, 20 μM Gal-7, pH 6.9, 30 °C, read-out: 50% Gal-7 loaded with ligand (ligand concentration)): ~4.5 µM | binding stoichiometry, Gal-3 molecules per KS molecule ([3]; D trend continues to Gal-3/KS molar ratio of ~6 to 8, both Gal-3 FL and CRD): ≤ 8 | decrease of KS D value ([3]; upon addition of one mole equivalent of Gal-3): about 40% | Kd ([2]; 2 μM × 17 sites, assumes the same stoichiometry as KSDS, Gal-3 FL, read-out: site-average microscopic KD): 34 µM | Kd ([2]; apparent affinity/avidity from average ∆δ vs ligand concentration, 20 μM Gal-3 FL, 20 mM KPhos, pH 6.9, 30 °C, read-out: 50% change in chemical shift / 50% lectin bound (ligand concentration)): ~2 µM | diffusion coefficient D [4]: 0.92 × 10^–6 cm^2/s^-1
Compound: keratan sulfate [KS]
